The values below come from patent US9346821B2, “Heterocyclic carboxylic acid ester derivative” (AJINOMOTO CO., INC., priority 2011, dated 2016).

The target of assay [1] is recombinant human enteropeptidase (Homo sapiens (Human), UniProt P98073). Nature of the assay: Measurement of enteropeptidase inhibitory activity. Type of assay: biochemical. To be noted: for Ki: recombinant human enteropeptidase, Gly-Asp-Asp-Asp-Asp-Lys-β-Naphtylamide substrate, Dixon plot. On the procedure:
Measurement of Enteropeptidase Inhibitory Activity
Using a 96 well plate (#3915, Costar), a test compound (25 μL), 400 mM Tris-HCl buffer (pH 8.0, 25 μL) and 0.5 mg/mL fluorescence enzyme substrate (Gly-Asp-Asp-Asp-Asp-Lys-β-Naphtylamide, 25 μL) were mixed, and recombinant human enteropeptidase (R&D Systems, Inc., 25 μL) was added. Using a fluorescence plate reader fmax (Molecular Devices, Inc.), the reaction rate was measured from the time-course changes at excitation wavelength 320 nm and fluorescence wavelength 405 nm. The Ki value was calculated from the concentration of the test compound, reciprocal of reaction rate, and Km value of the enzyme substrate, and by using Dixon plot.

The next assay deals with human trypsin (Homo sapiens, UniProt P07477). Kind of assay: Measurement of trypsin inhibitory activity. Type of assay: biochemical. To be noted: for Ki: human trypsin, Boc-Phe-Ser-Arg-AMC substrate, Dixon plot. On the procedure:
Measurement of Trypsin Inhibitory Activity
Using a 96 well plate (#3915, Costar), a test compound (25 μL) was mixed with 20 μM fluorescence enzyme substrate (Boc-Phe-Ser-Arg-AMC, 50 μL) mixed with 200 mM Tris-HCl buffer (pH 8.0), and human trypsin (Sigma, 25 μL) was added. Using a fluorescence plate reader fmax (Molecular Devices, Inc.), the reaction rate was measured from the time-course changes at excitation wavelength 355 nm and fluorescence wavelength 460 nm. The Ki value was calculated from the concentration of the test compound, reciprocal of reaction rate, and Km value of the enzyme substrate, and by using Dixon plot.

In the next assay the test system is KK-A^y/JCL mice. Nature of the assay: Evaluation of antidiabetic action (Experimental Example 4). Type of assay: in vivo. The note with it: mixed in feed for one week, versus control group. The source says:
Evaluation of Antidiabetic Action KK-A^y/JCL mice (male, 5- to 7-week-old, CLEA Japan, Inc.) known to spontaneously develop obese type 2 diabetes were purchased and, after one week of preliminary rearing period, grouped (6 per group) with the body weight and non-fasting blood glucose levels as indices. The animals were individually housed in a polycarbonate cage and allowed to drink water freely from a watering bottle. […] CRF-1 alone was given to the control group. After one week of dosing period, the blood (6 μL) was drawn from the tail vein of the animals, and the blood glucose level was measured by ACCU-CHEK Aviva (Roche Diagnostics K.K.). A significant difference from the control group was detected by Dunnett's multiple comparison test or Student's t-test (significance level less than 5%).

Where a name gives a salt, the structure may show the parent alone.

Chain of recombinant human enteropeptidase (P98073 whole entry): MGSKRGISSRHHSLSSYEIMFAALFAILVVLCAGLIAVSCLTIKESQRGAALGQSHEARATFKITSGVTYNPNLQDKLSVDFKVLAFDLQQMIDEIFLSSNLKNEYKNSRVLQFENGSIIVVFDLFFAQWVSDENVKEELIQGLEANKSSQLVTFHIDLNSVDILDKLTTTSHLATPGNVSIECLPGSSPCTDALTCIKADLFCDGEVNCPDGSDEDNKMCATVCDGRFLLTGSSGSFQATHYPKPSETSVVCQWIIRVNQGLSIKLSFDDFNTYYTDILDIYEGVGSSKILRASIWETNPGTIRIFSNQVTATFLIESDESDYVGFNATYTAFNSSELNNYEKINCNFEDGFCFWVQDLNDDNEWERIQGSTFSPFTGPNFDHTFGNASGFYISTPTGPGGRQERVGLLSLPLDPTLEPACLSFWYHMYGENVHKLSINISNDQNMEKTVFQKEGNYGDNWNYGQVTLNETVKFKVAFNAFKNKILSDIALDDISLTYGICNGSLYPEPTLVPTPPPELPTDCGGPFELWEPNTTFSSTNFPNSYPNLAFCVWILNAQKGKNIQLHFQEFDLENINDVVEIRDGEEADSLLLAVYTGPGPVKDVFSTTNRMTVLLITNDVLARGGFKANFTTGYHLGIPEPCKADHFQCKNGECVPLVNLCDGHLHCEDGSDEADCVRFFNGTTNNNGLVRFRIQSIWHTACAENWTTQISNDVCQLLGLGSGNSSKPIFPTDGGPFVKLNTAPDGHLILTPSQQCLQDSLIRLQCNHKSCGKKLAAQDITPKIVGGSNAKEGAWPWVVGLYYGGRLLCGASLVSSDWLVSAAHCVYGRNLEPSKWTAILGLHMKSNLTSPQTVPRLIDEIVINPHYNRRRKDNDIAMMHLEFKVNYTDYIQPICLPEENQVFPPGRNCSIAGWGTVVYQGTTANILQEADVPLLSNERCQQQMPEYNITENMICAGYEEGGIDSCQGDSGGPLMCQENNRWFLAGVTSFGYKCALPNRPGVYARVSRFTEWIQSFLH

Turning to `N=C(N)c1ccc(OC(=O)c2ccc(Cn3cccc3C(=O)O)s2)c(F)c1` [B-42, N-{[5-(4-amidino-2-fluorophenoxycarbonyl)thiophen-2-yl]methyl}-1H-pyrrole-2-carboxylic acid trifluoroacetate], the Ki (in general, a dissociation constant, usually derived from enzyme kinetics or from competition with a known ligand) in assay [1] stood at 0.61 nM; at human trypsin, 0.82 nM.
For the compound `N=C(N)c1ccc(OC(=O)c2ccc(CN3CCC[C@H]3C(=O)N[C@@H](CS(=O)(=O)O)C(=O)O)o2)cc1` [A-10], the Ki amounted to 0.65 nM in assay [1] and 0.97 nM on human trypsin.
Regarding `N=C(N)c1ccc(OC(=O)c2ccc(CN3CSC[C@H]3C(=O)N[C@@H](CC(=O)O)C(=O)O)s2)c(F)c1` [B-20], the Ki in assay [1] is 0.15 nM; on human trypsin it was 0.21 nM.
`CC(C)[C@H](C(=O)N[C@@H](CC(=O)O)C(=O)O)N(C)Cc1ccc(C(=O)Oc2ccc(C(=N)N)cc2F)s1` [B-27, N—(N-{[5-(4-amidino-2-fluorophenoxycarbonyl)thiophen-2-yl]methyl}-N-methyl-D-valyl)-L-aspartic acid bis(trifluoroacetate)]: the Ki in assay [1] amounted to 0.78 nM; at human trypsin, 0.68 nM.
For the compound `C=CCN(C(=O)CN1CCc2cc(C(=O)Oc3ccc(C(=N)N)cc3F)sc2C1)[C@@H](CCC(=O)O)C(=O)O` [B-45, N-allyl-N-({2-[(4-amidino-2-fluorophenoxy)carbonyl]-4,5-dihydrothieno[2,3-c]pyridin-6(7H)-yl}acetyl)-L-glutamic acid bis(trifluoroacetate)], the figures for the Ki (in assay [1]; at human trypsin) were 0.62 nM and 0.71 nM, respectively.
Taken in the same sequence, the figures for `N=C(N)c1ccc(OC(=O)c2ccc(CN3CCC[C@@H]3C(=O)N(CCC(=O)O)CC(=O)O)s2)c(F)c1` [B-60, N-{5-[(4-amidino-2-fluorophenoxy)carbonyl]thiophen-2-yl}methyl-D-proline N-(2-carboxyethyl)-N-carboxymethylamide bis(trifluoroacetate)] were 0.53 nM and 0.42 nM.
Turning to `N=C(N)c1ccc(OC(=O)c2ccc(CN3CCC[C@@H]3C(=O)N[C@@H](CS(=O)(=O)O)C(=O)O)s2)cc1` [B-12], the Ki in assay [1] was found to be 0.95 nM; at human trypsin, 1.14 nM.
Regarding `CC(C)[C@@H](C(=O)N[C@@H](CC(=O)O)C(=O)O)N(C)Cc1ccc(C(=O)Oc2ccc(C(=N)N)cc2)o1` [A-14, N—(N-{[5-(4-amidinophenoxycarbonyl)furan-2-yl]methyl}-N-methyl-L-valyl)-L-aspartic acid bis(trifluoroacetate)], the Ki in assay [1] was 0.56 nM; on human trypsin, 0.45 nM.
On to `CC(C)C[C@@H](C(=O)N[C@@H](CC(=O)O)C(=O)O)N(C)Cc1ccc(C(=O)Oc2ccc(C(=N)N)cc2F)s1` [B-35], for which the Ki was determined as 0.53 nM in assay [1] and 0.81 nM at human trypsin.
For `N=C(N)c1ccc(OC(=O)c2ccc(CN3CCC[C@@H]3C(=O)N[C@@H](CS(=O)(=O)O)C(=O)O)s2)c(F)c1` [B-14], the Ki in assay [1] stood at 0.24 nM; at human trypsin, 0.19 nM.
For the compound `CN(Cc1ccc(C(=O)Oc2ccc(C(=N)N)cc2)o1)C(=O)N[C@@H](CC(=O)O)C(=O)O` [A-20], the Ki in assay [1] worked out at 0.94 nM; on human trypsin it was 0.54 nM.
Turning to `N=C(N)c1ccc(OC(=O)c2ccc(CN3CCCC[C@H]3C(=O)N[C@@H](CC(=O)O)C(=O)O)s2)c(F)c1` [B-18], the values for the Ki (in assay [1]; at human trypsin) were 0.44 nM and 0.92 nM, respectively.
Turning to `N=C(N)c1ccc(OC(=O)c2cc3c(s2)CN(C(=O)N[C@@H](CC(=O)O)C(=O)O)CC3)c(F)c1` [B-55, N-{[2-(4-amidino-2-fluorophenoxycarbonyl)-4,5,6,7-tetrahydrothieno[2,3-c]pyridin-6-yl]carbonyl}-L-aspartic acid trifluoroacetate], the Ki turned out to be 0.2 nM in assay [1] and 0.24 nM on human trypsin.
In the case of `N=C(N)c1ccc(OC(=O)c2ccc(CN3CCC[C@@H]3C(=O)N[C@@H](CC(=O)O)C(=O)O)s2)c(F)c1` [B-13], the Ki was 0.43 nM in assay [1] and 0.29 nM on human trypsin.
On to `C=CCN(CC(=O)N[C@@H](CC(=O)O)C(=O)O)C(=O)CCc1ccc(C(=O)Oc2ccc(C(=N)N)cc2F)s1` [B-56, N—[N-allyl-N-(3-{5-[(4-amidino-2-fluorophenoxy)carbonyl]thiophen-2-yl}propanoyl)glycyl]-L-aspartic acid trifluoroacetate], for which the results for the Ki (in assay [1]; on human trypsin) were 0.77 nM and 0.43 nM, respectively.
For `N=C(N)c1ccc2cc(OC(=O)c3ccc(CN4CCC[C@@H]4C(=O)N[C@@H](CS(=O)(=O)O)C(=O)O)o3)ccc2c1` [A-6], the Ki was 0.67 nM in assay [1] and 0.08 nM at human trypsin.
Turning to `N=C(N)c1ccc(OC(=O)c2ccc(CCC(=O)N[C@@H](CC(=O)O)C(=O)O)s2)c(F)c1.O=C(O)C(F)(F)F` [reference compound A, N-{3-[5-(4-amidino-2-fluorophenoxycarbonyl)thiophen-2-yl]propanoyl}-L-aspartic acid trifluoroacetate, reference compound], the Ki in assay [1] is 1.36 nM. In assay [1] (summary statement), the “enteropeptidase inhibitory activity (in words)” value was “superior”. For the same compound, the “trypsin inhibitory activity (in words)” value on human trypsin (summary statement) is recorded as “superior”. The hypoglycemic action entry in the assay with KK-A^y/JCL mice is reported as “significant hypoglycemic action”.
With `CC(C)C[C@@H](C(=O)N[C@@H](CCC(=O)O)C(=O)O)N(C)Cc1ccc(C(=O)Oc2ccc(C(=N)N)cc2F)s1` [B-32], the Ki in assay [1] came to 0.9 nM; at human trypsin it was 0.7 nM.
Consider `N=C(N)c1ccc(OC(=O)c2ccc(CN3CCC[C@@H]3C(=O)N[C@@H](CS(=O)(=O)O)C(=O)O)o2)cc1` [A-5], for which the Ki in assay [1] was 0.82 nM; on human trypsin, 0.24 nM.
In the case of `N=C(N)c1ccc(OC(=O)c2ccc(CN3CCC[C@H]3C(=O)N[C@@H](CS(=O)(=O)O)C(=O)O)s2)c(F)c1` [B-10], the Ki in assay [1] was 0.24 nM; at human trypsin, 0.25 nM.
For `CC(C)N(Cc1ccc(C(=O)Oc2ccc(C(=N)N)cc2)o1)C(=O)N[C@@H](CC(=O)O)C(=O)O` [A-21], in that order: 0.38 nM and 0.84 nM.
For `CN(Cc1ccc(C(=O)Oc2ccc(C(=N)N)cc2F)s1)[C@H](Cc1ccccc1)C(=O)N[C@H](CC(=O)O)C(=O)O` [B-59, N—(N-{5-[(4-amidino-2-fluorophenoxy)carbonyl]thiophen-2-yl}methyl-N-methyl-D-phenylalanyl)-D-aspartic acid bis(trifluoroacetate)], in that order: 0.98 nM and 3.31 nM.
As to `N=C(N)c1ccc(OC(=O)c2ccc(CN3CCC[C@@H]3C(=O)N[C@H](CC(=O)O)C(=O)O)s2)c(F)c1` [B-15], the Ki worked out at 0.69 nM in assay [1] and 0.52 nM on human trypsin.
On to `CN(Cc1ccc(C(=O)Oc2ccc(C(=N)N)cc2F)s1)C(=O)N[C@@H](CC(=O)O)C(=O)O` [B-46], for which the results for the Ki (in assay [1]; at human trypsin) were 0.38 nM and 0.87 nM, respectively.
Consider `CC(C)N(Cc1ccc(C(=O)Oc2ccc(C(=N)N)cc2F)s1)C(=O)N[C@@H](CC(=O)O)C(=O)O` [B-47], for which the Ki in assay [1] is 0.33 nM; on human trypsin it was 0.69 nM.
Consider `C=CCN(CC(=O)O)C(=O)[C@@H]1CSCN1Cc1ccc(C(=O)Oc2ccc(C(=N)N)cc2F)s1` [B-21], for which the figures for the Ki (in assay [1]; at human trypsin) were 1 nM and 0.38 nM, respectively.
Taken in the same sequence, the figures for `C=CCN(CC(=O)O)C(=O)[C@@H]1CCCN1Cc1ccc(C(=O)Oc2ccc(C(=N)N)cc2F)s1` [B-11] were 0.78 nM and 0.64 nM.
For the compound `CC(C)[C@@H](C(=O)N[C@@H](CC(=O)O)C(=O)O)N(C)Cc1ccc(C(=O)Oc2ccc(C(=N)N)cc2F)s1` [B-23], the inhibition constant Ki in assay [1] was 0.75 nM; on human trypsin it was 0.44 nM.
`N=C(N)c1ccc(OC(=O)c2ccc(CNC3(C(=O)N[C@@H](CC(=O)O)C(=O)O)CC3)s2)c(F)c1` [B-37, N-(1-{[5-(4-amidino-2-fluorophenoxycarbonyl)thiophen-2-yl]methylamino}cyclopropanecarbonyl)-L-aspartic acid bis(trifluoroacetate)]: the figures for the Ki (in assay [1]; at human trypsin) were 1.27 nM and 1.57 nM, respectively.
On to `CC(C)[C@@H](C(=O)N[C@@H](CCC(=O)O)C(=O)O)N(C)Cc1ccc(C(=O)Oc2ccc(C(=N)N)cc2F)s1` [B-26], for which the Ki is 1 nM in assay [1] and 0.38 nM at human trypsin.
For the compound `N=C(N)c1ccc(OC(=O)c2cc3c(s2)CN(CC(=O)O)CC3)c(F)c1` [B-43, {2-[(4-amidino-2-fluorophenoxy)carbonyl]-4,5-dihydrothieno[2,3-c]pyridin-6(7H)-yl}acetic acid bis(trifluoroacetate)], the Ki in assay [1] came to 0.69 nM; on human trypsin, 0.56 nM.
As for `CC(C)C[C@@H](C(=O)N[C@H](CCC(=O)O)C(=O)O)N(C)Cc1ccc(C(=O)Oc2ccc(C(=N)N)cc2F)s1` [B-36], the Ki amounted to 0.61 nM in assay [1] and 0.89 nM at human trypsin.
